Measurements published in US20240196946A1, “METABOLICALLY MODIFIED VANILLA BEANS AND METHODS FOR PRODUCING SAME” (VANILLA TECHNOLOGIES LTD., priority 2021, published 2024).

Legend:
[1] = tested on: vanilla beans; test: Vanillin content analysis by spectrophotometry of treated, cured vanilla beans; set-up: species or system Vanilla planifolia; conditions: relative to water control; FIG. 1; concentrations as in Table 1
Procedure: Target chemical compounds (set forth in table 1 below) were dissolved in water and pH adjusted to pH-7. Green beans cut into 1 cm pieces were placed in a 50 ml tube or intact beans placed in a bucket. A 10 ml solution containing one of the compounds indicated in Table 1 dissolved in water and 0.1% of each of the four surfactants tween 20, tween 80, span 20, and span 80 was added per each bean. The beans were incubated with the solution for 0.5-36 hours (e.g. overnight) at room temperature. The solution was the filtered out, the beans washed, and placed in a drying chamber with controlled temperature and humidity conditions to provide killing and curing as known in the art. The beans were weighted daily and at a 25-30% of their original weight, subjected to vanillin content analysis by spectrophotometry, as well as to a flavor test by a sensory panel.

[2] = tested on: Vanilla planifolia beans; test: GC-MS headspace (SPME) analysis of treated vanilla beans (Example 2); conditions: for Phenylethyl Alcohol and 3-Phenyl-2-propenoic acid methyl ester / compounds giving a vinegar anisic and creamy flavor (acetic acid, creosol and 2,3-Butanediol): FIG. 3E, glutathione results not shown; for vanillin levels: GC-MS headspace vs control, FIG. 3A-3E; for constituents delivering vinegar anisic and floral flavors (acetic acid, creosol and acetoin): 3C
Text: The treated vanilla beans were further analyzed by Gas Chromatography-Mass Spectrometry (GC-MS) in headspace mode with solid phase micro extraction (SPME) fiber. Compound identification was done by retention index and mass spectra. Compound flavor was obtained by searching a compound name in the following databases: https://pubchem.ncbi.nlm.nih.gov/ and […].com/.

N[C@@H](CCC(=O)N[C@@H](CS)C(=O)NCC(=O)O)C(=O)O [L- glutathione]
vanillin content (abundance of vanillin) [1]: reduced vanillin content | Phenylethyl Alcohol and 3-Phenyl-2-propenoic acid methyl ester [2]: induced the formation | compounds giving a vinegar anisic and creamy flavor (acetic acid, creosol and 2,3-Butanediol) [2]: reduced abundance | vanillin levels [2]: increase

N[C@@H](Cc1ccccc1)C(=O)O [L-Phenylalanine]
vanillin content (abundance of vanillin) [1]: reduced vanillin content | Phenylethyl Alcohol and 3-Phenyl-2-propenoic acid methyl ester [2]: induced the formation | compounds giving a vinegar anisic and creamy flavor (acetic acid, creosol and 2,3-Butanediol) [2]: reduced abundance | vanillin levels [2]: increase

CC(=O)C(=O)O [Pyruvic acid]
acetic acid, 2,3-Butanediol and acetoin ([2]; FIG. 3D): formation | level of compounds giving anisic and floral flavors (creosol and benzeneacetaldehyde) ([2]; FIG. 3D): decreasing | vanillin levels [2]: increase

O=C(O)c1ccccc1O [Salicylic acid]
vanillin content (abundance of vanillin) [1]: large increase | levels of constituents resulting in a nutty flavor (3-hydroxy-Benzaldehyde) ([2]; FIG. 3B): increased | constituents delivering vinegar anisic and floral flavors (acetic acid, creosol and acetoin) ([2]; FIG. 3B): decrease | vanillin levels [2]: marked increase

Chitosan
constituents delivering vinegar anisic and floral flavors (acetic acid, creosol and acetoin) ([2]; FIG. 3B): decrease | levels of constituents delivering a nutty coffee flavor (3-hydroxy-Benzaldehyde and 2-methyl-Butanal) ([2]; FIG. 3C): increased | vanillin levels [2]: milder increase
